Reference: patent US20230241073A1, “PHARMACEUTICAL COMPOSITION FOR PREVENTING OR TREATING NON-SMALL CELL LUNG CANCER ASSOCIATED WITH RON MUTANTATION, AND METHOD USING SAME” (WELLMARKER BIO CO., LTD., priority 2020, published 2023)
Counter-ions that a name gives are not always drawn. Each block holds one molecule with its values, some of them ahead of it.

Legend:
[1] = system: Calu-6 non-small cell lung cancer cell line of a mutation RONΔ155 type; experiment: MTS assay, cell growth inhibitory ability, Calu-6; type: cell-based; details: Homo sapiens; Calu-6, RON mutation Δ155, 72 hours
Description: (§1) In order to compare and confirm the cell growth inhibitory ability of Examples 1 (WM-S1-030) to 5, positive control 1 (BMS-777607) and positive control 2 (AMG-510) in four non-small cell lung cancer cell lines of a mutation RONΔ155 type (Calu-6, A549, NCI-H358, NCI-H1944), MTS assay was carried out.
(§2) For MTS assay, 1,000 cells of each non-small cell lung cancer cell line per well were seeded in a 96-well-plate, and 24 hours later, treated with the compounds of Examples 1 to 5, positive control 1 and positive control 2 at various concentrations ([…]) in 100 μL of 10% FBS-RPMI medium (Welgene) per each well. Thereafter, the cells were cultured for 72 hours, and then 20 μL of MTS solution (Promega) was added and cultured for 2 hours, and then absorbance was measured at 490 nm. The cytotoxicity was analyzed by deriving the IC50 for the compounds of Examples 1 to 5, positive control 1 and positive control 2 using GraphPad Prism™ 5.

[2] = system: A549 non-small cell lung cancer cell line of a mutation RONΔ155 type; experiment: MTS assay, cell growth inhibitory ability, A549; type: cell-based; details: Homo sapiens; A549, RON mutation Δ155, 72 hours
Description: as §1, §2

[3] = system: NCI-H358 non-small cell lung cancer cell line of a mutation RONΔ155 type; experiment: MTS assay, cell growth inhibitory ability, NCI-H358; type: cell-based; details: Homo sapiens; NCI-H358, RON mutation Δ155, 72 hours
Description: as §1, §2

[4] = system: NCI-H1944 non-small cell lung cancer cell line of a mutation RONΔ155 type; experiment: MTS assay, cell growth inhibitory ability, NCI-H1944; type: cell-based; details: Homo sapiens; NCI-H1944, RON mutation Δ155, 72 hours
Description: as §1, §2

[5] = system: A549 (mRONΔ155) non-small cell lung cancer cell line transplanted mouse model; experiment: Tumor growth inhibition in A549 transplanted animal model; type: in vivo; details: A549 xenograft, 50 mg/kg, orally once a day for 3 weeks
Description: (§3) It was confirmed whether tumor growth was inhibited by administering Example 1 (WM-S1-030) at a dose of 50 mpk to a mouse model transplanted with A549, which is a non-small cell lung cancer cell line of a mutation RONΔ155 type. Specifically, 5-week-old female BALB/c-nude mice were purchased and acclimatized for 1 week. Thereafter, A549 (5×10^6 cells/mouse), a non-small cell lung cancer cell line of a mutation RONΔ155 type, was diluted in PBS (phosphate buffered saline), and 100 μL was injected subcutaneously into the right dorsal side of the mouse. When the size of the tumor reached about 100 mm^3, the negative control (excipient) and Example 1 were orally administered. The drug was administered once a day for 3 weeks, and the tumor size and body weight were measured twice a week. After the drug administration was completed, the mice were euthanized, the tumor was extracted, and the weight was measured.

[6] = system: NCI-H358 (mRONΔ155) non-small cell lung cancer cell line transplanted mouse model; experiment: Tumor growth inhibition in NCI-H358 transplanted animal model; type: in vivo; details: NCI-H358 xenograft, orally once a day for 38 days
Description: as §3, with “of 3 mpk, 10 mpk and 30” for “of 50”, “with NCI-H358,” for “with A549,”, “Thereafter, NCI-H358” for “Thereafter, A549”, “PBS” for “PBS (phosphate buffered saline),”, “and Matrigel, and 200” for “and 100”, “for 38 days,” for “for 3 weeks,”

[7] = system: pTyr-mRON, cleaved caspase 3, cyclin D1 in NCI-H358 (mRONΔ155) tumor; experiment: Protein expression change by immunochemical staining of tumor tissue, NCI-H358 transplanted animal model; type: in vivo, mouse; details: 3 mpk, 10 mpk, 30 mpk, FIG. 4
Description: (§4) Example 1 (WM-S1-030) was administered at each concentration (3 mpk, 10 mpk, 30 mpk) to a mouse model transplanted with NCI-H358, which is a non-small cell lung cancer cell line of a mutation RONΔ155 type, and then the tumor was extracted, and the expression changes of the proteins were analyzed by immunochemical staining.
(§5) Specifically, paraffin slides were prepared using tissues isolated from the sacrificed mice. The tissue sections were deparaffinized and rehydrated, immersed in the target recovery buffer 1×(ScyTek Laboratories, Cat #CBB999) and heated for 15 minutes to perform an antigen recovery process. After the reaction, the tissue sections were washed in Tris buffered saline-0.05% Tween 20 (TBS-T)(T&I, BTT-9310) for 5 minutes, and then the reaction was performed with a non-specific antibody response blocking reagent (vector, SP-5035) for 1 hour.
(§6) The tissue sections were cultured at 4° C. overnight with mRON (Abcam, ab52927, 1:50), pTyr-mRON (Mybioscience, MBS462024, 1:100), cleaved caspase 3 (Asp175)(R&D Systems, MAB835, 1:50), and cyclin D1 (cyclin D1 (SP4), #Z2027RS, 1:100) and then washed with TBS-T for 5 minutes, and then endogenous peroxidase activity was blocked using a peroxidase blocking reagent (Cellmarque, 925B-05). Thereafter, the tissue sections were washed with TBS-T for 5 minutes and then incubated with a rabbit secondary antibody (vector, PK-6101) at room temperature for 1 hour. The tissue sections were washed with TBS-T for 5 minutes and then colored with diaminobenzidine (cat #SK-4100). In order to stain the nuclei of the tissues, they were stained with hematoxylin (ScyTek Laboratories, HMM999) for 1 minute, dehydrated, and then encapsulated.

[8] = system: NCI-H460 (mRONΔ165) non-small cell lung cancer cell line transplanted mouse model; experiment: Tumor growth inhibition in NCI-H460 transplanted animal model; type: in vivo; details: NCI-H460 xenograft, 50 mg/kg, once a day for 2 weeks
Description: It was confirmed whether tumor growth was inhibited by administering Example 1 (WM-S1-030) at a dose of 50 mpk to a mouse model transplanted with NCI-H460, which is a non-small cell lung cancer cell line of a mutation RONΔ165 type. Specifically, 5-week-old female BALB/c-nude mice were purchased and acclimatized for 1 week. Thereafter, NCI-H460 (2×10^6 cells/mouse), a non-small cell lung cancer cell line of a mutation RONΔ165 type, was diluted in PBS and Matrigel, and 200 μL was injected subcutaneously into the right dorsal side of the mouse. When the size of the tumor reached about 100 mm^3, the negative control (excipient) and Example 1 were orally administered. In this case, positive control 1 (BMS-777607) was administered at a dose of 50 mpk. The drug was administered once a day for 2 weeks, and the tumor size and body weight were measured twice a week. After the drug administration was completed, the mice were euthanized, the tumor was extracted, and the weight was measured.

[9] = system: pTyr-mRON, cleaved caspase 3, cyclin D1 in NCI-H460 (mRONΔ165) tumor; experiment: Protein expression change by immunochemical staining of tumor tissue, NCI-H460 transplanted animal model; type: in vivo, mouse; details: 30 mpk, 50 mpk, FIG. 6
Description: as §4, with “(30” for “(3”, “50” for “10 mpk, 30”, “mpk) and positive control 1 was administered at a dose of 50 mpk” for “mpk)”, “NCI-H460,” for “NCI-H358,”, “RONΔ165” for “RONΔ155”
as §5
as §6, with “1:50),” for “1:50), and”

[10] = system: A549 non-small cell lung cancer cell line of a mutation RONΔ155 type; experiment: Cell killing efficacy, trypan blue exclusion assay, A549; type: cell-based; details: A549, 1 μM, 48 hours, FIG. 1
Description: (§7) A549 and NCI-H358, which are non-small cell lung cancer cell lines of a mutation RONΔ155 type, were dispensed, and 24 hours later, treated with 1 μM of the compounds of Examples 1 (WM-S1-030) to 5, positive control 1 (BMS-777607) and positive control 2 (AMG-510), respectively, while replacing the medium. After 48 hours, the cells and the cell fluid were harvested (1500 rpm, 4 min), and live cells and dead cells were quantified through trypan blue (15250-061, Gibco) exclusion assay. Statistical analysis was performed using T-test in Excel.

[11] = system: NCI-H358 non-small cell lung cancer cell line of a mutation RONΔ155 type; experiment: Cell killing efficacy, trypan blue exclusion assay, NCI-H358; type: cell-based; details: NCI-H358, 1 μM, 48 hours, FIG. 1
Description: as §7

SMILES: CCOc1ccn(-c2ccccc2)c(=O)c1C(=O)Nc1ccc(Oc2ccnc3cc(-c4ccc(CNCCOC)cn4)sc23)c(F)c1 [Example 2, 4-ethoxy-N-(3-fluoro-4-{[2-(5-{[(2-methoxyethyl)amino]methyl}pyridin-2-yl)thieno[3,2-b]pyridin-7-yl]oxy}phenyl)-2-oxo-1-phenyl-1,2-dihydropyridine-3-carboxamide hydrochloride]
IC50 [1]: 7290 nM | IC50 [2]: 1940 nM | IC50 [3]: 9110 nM | IC50 [4]: > 10000 nM

SMILES: CCOc1ccn(-c2ccccc2)c(=O)c1C(=O)Nc1ccc(Oc2ccnc3cc(-c4ccc(CN5CCN(C)CC5)cn4)sc23)c(F)c1 [Example 3, hydrochloride]
IC50 [1]: 1550 nM | IC50 [2]: 610 nM | IC50 [3]: 2610 nM | IC50 [4]: 2160 nM

SMILES: COc1cc2c(Oc3ccc(NC(=O)c4c5c(cn(-c6ccc(F)cc6)c4=O)CCO5)cc3F)ccnc2cc1OCCCN1CC(C#N)C1 [Example 5, N-[4-({7-[3-(3-cyanoazetidin-1-yl)propoxy]-6-methoxyquinolin-4-yl}oxy)-3-fluorophenyl]-5-(4-fluorophenyl)-6-oxo-2,3,5,6-tetrahydrofuro[3,2-c]pyridine-7-carboxamide]
IC50 [1]: 1330 nM | IC50 [2]: 190 nM | IC50 [3]: 270 nM | IC50 [4]: 310 nM

SMILES: CCOc1ccn(-c2ccc(F)cc2)c(=O)c1C(=O)Nc1ccc(Oc2ccnc(N)c2Cl)c(F)c1 [Positive control 1, N-{4-[(2-amino-3-chloro-4-pyridinyl)oxy]-3-fluorophenyl}-4-ethoxy-1-(4-fluorophenyl)-2-oxo-1,2-dihydro-3-pyridinecarboxamide, reference compound]
IC50 [1]: > 10000 nM | IC50 [2]: > 10000 nM | IC50 [3]: > 10000 nM | IC50 [4]: > 10000 nM | Cell killing efficacy (cell death) [10]: response to the drug was low | Cell killing efficacy (cell death) [11]: response to the drug was low | Tumor growth inhibition rate (TGI, %) [8]: 26.1 ± 1.7%

SMILES: C=CC(=O)N1CCN(c2nc(=O)n(-c3c(C)ccnc3C(C)C)c3nc(-c4c(O)cccc4F)c(F)cc23)[C@@H](C)C1 [Positive control 2, reference compound]
IC50 [1]: > 10000 nM | IC50 [2]: > 10000 nM | IC50 [3]: 50 nM | IC50 [4]: > 10000 nM | Cell killing efficacy (cell death) [10]: response to the drug was low | Cell killing efficacy (cell death) [11]: response to the drug was low

Molecules with a lower IC50 [1], results first:

IC50 [1]: 850 nM | IC50 [2]: 370 nM | IC50 [3]: 890 nM | IC50 [4]: 600 nM
SMILES: COc1cc2c(Oc3ccc(NC(=O)c4c5c(cn(-c6ccc(F)cc6)c4=O)CCO5)cc3F)ccnc2cc1OCCN1CCOCC1 [Example 4, N-(3-fluoro-4-{[6-methoxy-7-(2-morpholinoethoxy)quinolin-4-yl]oxy}phenyl)-5-(4-fluorophenyl)-6-oxo-2,3,5,6-tetrahydrofuro[3,2-c]pyridine-7-carboxamide]

IC50 [1]: 720 nM | IC50 [2]: 2020 nM | IC50 [3]: 1270 nM | IC50 [4]: 1620 nM
SMILES: CCOc1ccn(-c2ccc(F)cc2)c(=O)c1C(=O)Nc1ccc(Oc2ccnc3cc(-c4ccc(CN5CCOCC5)cn4)sc23)c(F)c1.Cl [Example 1, 4-ethoxy-N-[3-fluoro-4-({2-[5-(morpholinomethyl)pyridin-2-yl]thieno[3,2-b]pyridin-7-yl}oxy)phenyl]-1-(4-fluorophenyl)-2-oxo-1,2-dihydropyridine-3-carboxamide hydrochloride]
Tumor growth inhibition rate (TGI, %) [5]: 58.9 ± 3.8% | Tumor growth inhibition rate (TGI, %) ([6]; 3 mg/kg): 12.3 ± 13.8% | Tumor growth inhibition rate (TGI, %) ([6]; 10 mg/kg): 64.5 ± 6.2% | Tumor growth inhibition rate (TGI, %) ([6]; 30 mg/kg): 91.0 ± 2.3% | expression of cleaved caspase 3 [7]: induced | expression of cyclin D1, a PD marker [7]: decreased | expression of pTyr-mRON [7]: decreased | Tumor growth inhibition rate (TGI, %) [8]: 69.7 ± 5.4% | expression of cleaved caspase 3 [9]: induced | expression of cyclin D1, a PD marker [9]: decreased | expression of pTyr-mRON [9]: decreased
